For the experiment, the system named is senescence markers and SASP factors in senescent IMR90 cells. In words: qPCR of senescence markers and SASP factors in irradiated senescent IMR90 cells. Format: cell-based, human. As for the experimental part:
Primary human fibroblast (IMR90) cells were induced to senesce by applying 10 Gy of irradiation. Seven days after irradiation (Day 0), cells were treated with 10 μM Nutlin-3a or vehicle (DMSO) for nine days (Day 9). The drug or vehicle was refreshed every three days. Drug/vehicle was removed at Day 9 and the cells were cultured for an additional three days (Day 12) in media without drug or DMSO. Cells were then collected, mRNA extracted, and cDNA prepared. Quantitative PCR (qPCR) was then performed to detect expression of various genes. Cells were also collected at Day 12 after drug/vehicle had been removed for three days. The data are presented as an average of three samples. Data were normalized to actin and depicted as a ratio to non-senescent cells.
On the technique in general: Real-time PCR tracks product formation cycle by cycle.

[1] abbreviates: 10 μM, drug present and after removal.
[2] abbreviates: Day 12, three days after drug removal.

The structures appear in SMILES notation.

The source of these data is patent US11980616B2, “Treating liver disease by selectively eliminating senescent cells” (Buck Institute for Research on Aging, priority 2014, dated 2024).

`COc1ccc(C2=N[C@@H](c3ccc(Cl)cc3)[C@@H](c3ccc(Cl)cc3)N2C(=O)N2CCNC(=O)C2)c(OC(C)C)c1` [Nutlin-3a]: the “p21 level relative to non-senescent cells” value (10 μM, Day 9, qPCR normalized to actin) is “approximately 90 fold”. For the same compound, where the note is “10 μM, Day 9 and Day 12”, the IL-1α level entry is “decreased only after Nutlin-3a had been removed”. Moreover, under setting [1], the CXCL-1 level result is given as “reduced”, the IL-6 level entry is recorded as “reduced” and the IL-8 level entry is “reduced”. In addition, under setting [2], the p16 level result is given as “decrease” and the “p21 level vs DMSO treated cells” value is listed as “comparable”. Also, under “in the presence of drug (Day 9)”, the p16 level entry was “did not change”.
